Data on 32 compounds can be found in ChEMBL document CHEMBL4680147, “Discovery of 6'-chloro-N-methyl-5'-(phenylsulfonamido)-[3,3'-bipyridine]-5-carboxamide (CHMFL-PI4K-127) as a novel Plasmodium falciparum PI(4)K inhibitor with potent antimalarial activity against both blood and liver stages of Plasmodium” (Eur J Med Chem, 2020).

Assay [1] relates to Plasmodium falciparum. In words: Antimalarial activity against sulphadoxine-resistant blood stage Plasmodium falciparum 3D7 infected in human O+ erythrocytes incubated for 72 hrs by SYBR Green 1 dye based fluorescence assay. The format is functional, organism-based. The following applies: 3D7, Erythrocyte.
The nature of assay [2]: Inhibition of recombinant His-tagged Plasmodium falciparum 3D7 PI4K expressed in baculovirus infected Sf9 cells using PI:PS as substrate incubated for 1 hr in presence of ATP by ADP-Glo kinase assay. A general note: ADP-Glo turns the ADP formed in a reaction into a luminescent signal.
Assay [3] concerns Plasmodium falciparum. In words: Antimalarial activity against artemisinin resistant Plasmodium falciparum 803 infected in human O+ erythrocytes incubated for 72 hrs by SYBR Green 1 dye based fluorescence assay. The format is functional, organism-based. The following applies: Plasmodium falciparum, 803, Erythrocyte.
Assay [4] concerns Plasmodium falciparum. In words: Antimalarial activity against mefloquine/chloroquine/pyrimethamine resistant Plasmodium falciparum Dd2 infected in human O+ erythrocytes incubated for 72 hrs by SYBR Green 1 dye based fluorescence assay. The assay is classed as functional, organism-based. The following applies: Dd2, Erythrocyte.
The target of assay [5] is Phosphatidylinositol 4-kinase beta (Homo sapiens, UniProt Q9UBF8). The assay is described as follows: Inhibition of human PI4K3beta by ADP-Glo kinase assay.
Assay [6] relates to Plasmodium falciparum. The assay is described as follows: Antimalarial activity against chloroquine resistant Plasmodium falciparum D10 infected in human O+ erythrocytes incubated for 72 hrs by SYBR Green 1 dye based fluorescence assay. The format is functional, organism-based. The following applies: D10, Erythrocyte.
The target of assay [7] is Phosphatidylinositol 4,5-bisphosphate 3-kinase catalytic subunit beta isoform (Homo sapiens, UniProt P42338). In words: Inhibition of human PI3Kbeta by ADP-Glo kinase assay.
Phosphatidylinositol 4,5-bisphosphate 3-kinase catalytic subunit beta isoform, sequence (P42338 whole entry, canonical isoform): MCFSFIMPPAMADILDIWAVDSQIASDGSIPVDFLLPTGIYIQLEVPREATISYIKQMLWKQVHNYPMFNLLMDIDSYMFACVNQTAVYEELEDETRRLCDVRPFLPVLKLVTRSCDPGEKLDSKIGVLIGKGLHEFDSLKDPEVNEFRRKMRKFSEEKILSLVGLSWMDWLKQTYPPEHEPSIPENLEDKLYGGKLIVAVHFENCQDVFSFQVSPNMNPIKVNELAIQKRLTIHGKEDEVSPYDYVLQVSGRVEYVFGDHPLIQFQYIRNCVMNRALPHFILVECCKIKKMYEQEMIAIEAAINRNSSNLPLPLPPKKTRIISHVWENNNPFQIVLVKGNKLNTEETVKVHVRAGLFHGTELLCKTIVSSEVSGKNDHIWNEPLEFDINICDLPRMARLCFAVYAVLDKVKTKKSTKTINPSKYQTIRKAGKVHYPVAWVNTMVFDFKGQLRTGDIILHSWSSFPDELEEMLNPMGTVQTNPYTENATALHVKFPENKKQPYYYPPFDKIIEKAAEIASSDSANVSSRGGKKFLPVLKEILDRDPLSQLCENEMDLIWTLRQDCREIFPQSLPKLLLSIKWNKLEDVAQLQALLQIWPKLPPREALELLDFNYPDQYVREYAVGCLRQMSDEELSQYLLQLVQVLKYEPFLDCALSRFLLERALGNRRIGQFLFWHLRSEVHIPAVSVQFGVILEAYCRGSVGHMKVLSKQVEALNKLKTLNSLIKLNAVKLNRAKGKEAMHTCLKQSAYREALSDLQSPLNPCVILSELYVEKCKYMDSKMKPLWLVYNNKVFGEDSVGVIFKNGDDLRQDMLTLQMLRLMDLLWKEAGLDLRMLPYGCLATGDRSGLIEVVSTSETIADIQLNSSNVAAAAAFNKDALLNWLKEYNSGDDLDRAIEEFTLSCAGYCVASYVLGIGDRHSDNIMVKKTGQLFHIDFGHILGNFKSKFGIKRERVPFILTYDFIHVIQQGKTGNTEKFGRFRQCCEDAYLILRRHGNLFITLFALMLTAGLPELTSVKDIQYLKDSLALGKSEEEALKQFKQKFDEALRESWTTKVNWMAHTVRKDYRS
Assay [8] deals with Plasmodium falciparum. The assay is described as follows: Antimalarial activity against pyrimethamine/chloroquine resistant Plasmodium falciparum C2A infected in human O+ erythrocytes incubated for 72 hrs by SYBR Green 1 dye based fluorescence assay. The format is functional, organism-based. The following applies: Erythrocyte.
For assay [9], the system named is Plasmodium falciparum. In words: Antimalarial activity against artemisinin and piperaquine-phosphate resistant Plasmodium falciparum 6320 infected in human O+ erythrocytes incubated for 72 hrs by SYBR Green 1 dye based fluorescence assay. The format is functional, organism-based. The following applies: Plasmodium falciparum, 6320, Erythrocyte.
For assay [10], the target named is Phosphatidylinositol 3-kinase catalytic subunit type 3 (Homo sapiens, UniProt Q8NEB9). The assay is described as follows: Inhibition of human VPS34 by ADP-Glo kinase assay.
Phosphatidylinositol 3-kinase catalytic subunit type 3, sequence (Q8NEB9 whole entry, the tested form may be a part): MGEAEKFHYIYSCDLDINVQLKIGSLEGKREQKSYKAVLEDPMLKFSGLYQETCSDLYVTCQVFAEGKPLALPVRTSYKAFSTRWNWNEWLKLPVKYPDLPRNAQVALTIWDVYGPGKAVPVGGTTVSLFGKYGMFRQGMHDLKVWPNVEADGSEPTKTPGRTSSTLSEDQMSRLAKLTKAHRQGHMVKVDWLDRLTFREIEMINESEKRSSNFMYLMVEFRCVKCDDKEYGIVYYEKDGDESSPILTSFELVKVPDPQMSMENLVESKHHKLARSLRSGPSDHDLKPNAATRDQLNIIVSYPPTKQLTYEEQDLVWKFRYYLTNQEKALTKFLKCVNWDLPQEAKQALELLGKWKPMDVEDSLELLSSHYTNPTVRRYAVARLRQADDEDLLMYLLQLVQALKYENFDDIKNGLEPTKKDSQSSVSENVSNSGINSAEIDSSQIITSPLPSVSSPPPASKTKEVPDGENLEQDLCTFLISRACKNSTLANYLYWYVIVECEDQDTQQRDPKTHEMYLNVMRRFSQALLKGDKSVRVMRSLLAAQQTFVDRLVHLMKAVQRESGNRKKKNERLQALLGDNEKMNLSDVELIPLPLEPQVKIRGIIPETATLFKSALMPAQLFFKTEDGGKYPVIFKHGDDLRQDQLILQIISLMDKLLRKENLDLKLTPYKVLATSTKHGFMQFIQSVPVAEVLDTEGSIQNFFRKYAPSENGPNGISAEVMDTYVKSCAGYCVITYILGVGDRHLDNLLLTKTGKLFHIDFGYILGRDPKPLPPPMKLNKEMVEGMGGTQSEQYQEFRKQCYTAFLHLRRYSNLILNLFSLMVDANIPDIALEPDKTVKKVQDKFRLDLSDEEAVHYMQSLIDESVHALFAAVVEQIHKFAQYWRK
In assay [11] the target is Phosphatidylinositol 4-phosphate 3-kinase C2 domain-containing subunit beta (Homo sapiens, UniProt O00750). In words: Inhibition of human PIK3C2beta by ADP-Glo kinase assay.
Phosphatidylinositol 4-phosphate 3-kinase C2 domain-containing subunit beta, sequence (O00750 whole entry, the tested form may be a part): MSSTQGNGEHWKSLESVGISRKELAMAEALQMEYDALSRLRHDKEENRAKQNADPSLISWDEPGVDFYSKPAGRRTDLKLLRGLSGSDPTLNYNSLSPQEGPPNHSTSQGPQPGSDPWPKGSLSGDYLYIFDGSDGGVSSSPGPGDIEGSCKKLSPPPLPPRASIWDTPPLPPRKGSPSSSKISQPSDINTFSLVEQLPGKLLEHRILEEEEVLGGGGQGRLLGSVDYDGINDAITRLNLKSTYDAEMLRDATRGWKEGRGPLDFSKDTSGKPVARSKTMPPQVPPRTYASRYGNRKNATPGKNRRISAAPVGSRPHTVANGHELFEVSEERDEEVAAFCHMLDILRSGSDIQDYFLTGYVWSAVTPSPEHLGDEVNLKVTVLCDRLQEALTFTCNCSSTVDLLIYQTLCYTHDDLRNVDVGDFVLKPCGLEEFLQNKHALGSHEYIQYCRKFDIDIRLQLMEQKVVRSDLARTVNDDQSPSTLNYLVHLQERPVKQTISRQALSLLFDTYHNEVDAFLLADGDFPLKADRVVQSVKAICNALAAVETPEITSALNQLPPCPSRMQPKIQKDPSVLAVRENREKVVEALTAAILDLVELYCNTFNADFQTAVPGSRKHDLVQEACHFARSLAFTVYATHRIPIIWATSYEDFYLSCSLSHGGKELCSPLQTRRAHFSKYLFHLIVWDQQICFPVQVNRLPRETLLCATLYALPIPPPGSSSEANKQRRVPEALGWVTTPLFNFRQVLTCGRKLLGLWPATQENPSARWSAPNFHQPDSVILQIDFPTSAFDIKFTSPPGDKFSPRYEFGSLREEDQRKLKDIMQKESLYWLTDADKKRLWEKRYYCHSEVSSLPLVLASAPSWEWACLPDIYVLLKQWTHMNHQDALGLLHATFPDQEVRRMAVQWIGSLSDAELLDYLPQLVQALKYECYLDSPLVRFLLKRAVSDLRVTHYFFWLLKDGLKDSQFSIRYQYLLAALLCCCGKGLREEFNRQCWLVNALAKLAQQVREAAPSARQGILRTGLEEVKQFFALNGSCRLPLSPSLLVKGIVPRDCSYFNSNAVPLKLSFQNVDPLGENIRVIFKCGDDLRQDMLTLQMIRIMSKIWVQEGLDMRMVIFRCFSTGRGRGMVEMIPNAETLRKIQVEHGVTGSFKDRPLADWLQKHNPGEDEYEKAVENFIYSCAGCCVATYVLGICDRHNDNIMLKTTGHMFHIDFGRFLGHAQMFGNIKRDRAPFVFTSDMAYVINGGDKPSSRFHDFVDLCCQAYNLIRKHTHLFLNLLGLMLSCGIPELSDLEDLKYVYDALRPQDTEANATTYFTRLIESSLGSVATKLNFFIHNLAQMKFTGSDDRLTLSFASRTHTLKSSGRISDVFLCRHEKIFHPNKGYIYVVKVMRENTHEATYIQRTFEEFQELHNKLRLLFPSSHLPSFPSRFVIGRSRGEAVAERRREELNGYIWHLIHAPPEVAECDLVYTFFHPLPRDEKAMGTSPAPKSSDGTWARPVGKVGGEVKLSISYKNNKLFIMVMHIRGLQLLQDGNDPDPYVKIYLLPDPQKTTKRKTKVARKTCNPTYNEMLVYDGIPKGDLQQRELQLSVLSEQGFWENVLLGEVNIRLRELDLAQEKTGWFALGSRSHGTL
In assay [12] the test system is Plasmodium falciparum. In words: Antimalarial activity against pyrimethamine/chloroquine resistant Plasmodium falciparum CP286 infected in human O+ erythrocytes incubated for 72 hrs by SYBR Green 1 dye based fluorescence assay. The following applies: CP286, Erythrocyte. The format is functional, organism-based.
Assay [13] is described as follows: Inhibition of human PIK3C2alpha by ADP-Glo kinase assay.
The subject of assay [14] is Plasmodium falciparum. In words: Antimalarial activity against pyrimethamine/chloroquine resistant Plasmodium falciparum PC26 infected in human O+ erythrocytes incubated for 72 hrs by SYBR Green 1 dye based fluorescence assay. The format is functional, organism-based. The following applies: PC26, Erythrocyte.
Assay [15] addresses Phosphatidylinositol 4,5-bisphosphate 3-kinase catalytic subunit alpha isoform (Homo sapiens, UniProt P42336). The assay is described as follows: Inhibition of human PI3Kalpha by ADP-Glo kinase assay.
Assay [16] deals with T1, Phosphatidylinositol 4,5-bisphosphate 3-kinase catalytic subunit delta isoform (Homo sapiens, UniProt O00329).
T1 sequence (O00329 whole entry): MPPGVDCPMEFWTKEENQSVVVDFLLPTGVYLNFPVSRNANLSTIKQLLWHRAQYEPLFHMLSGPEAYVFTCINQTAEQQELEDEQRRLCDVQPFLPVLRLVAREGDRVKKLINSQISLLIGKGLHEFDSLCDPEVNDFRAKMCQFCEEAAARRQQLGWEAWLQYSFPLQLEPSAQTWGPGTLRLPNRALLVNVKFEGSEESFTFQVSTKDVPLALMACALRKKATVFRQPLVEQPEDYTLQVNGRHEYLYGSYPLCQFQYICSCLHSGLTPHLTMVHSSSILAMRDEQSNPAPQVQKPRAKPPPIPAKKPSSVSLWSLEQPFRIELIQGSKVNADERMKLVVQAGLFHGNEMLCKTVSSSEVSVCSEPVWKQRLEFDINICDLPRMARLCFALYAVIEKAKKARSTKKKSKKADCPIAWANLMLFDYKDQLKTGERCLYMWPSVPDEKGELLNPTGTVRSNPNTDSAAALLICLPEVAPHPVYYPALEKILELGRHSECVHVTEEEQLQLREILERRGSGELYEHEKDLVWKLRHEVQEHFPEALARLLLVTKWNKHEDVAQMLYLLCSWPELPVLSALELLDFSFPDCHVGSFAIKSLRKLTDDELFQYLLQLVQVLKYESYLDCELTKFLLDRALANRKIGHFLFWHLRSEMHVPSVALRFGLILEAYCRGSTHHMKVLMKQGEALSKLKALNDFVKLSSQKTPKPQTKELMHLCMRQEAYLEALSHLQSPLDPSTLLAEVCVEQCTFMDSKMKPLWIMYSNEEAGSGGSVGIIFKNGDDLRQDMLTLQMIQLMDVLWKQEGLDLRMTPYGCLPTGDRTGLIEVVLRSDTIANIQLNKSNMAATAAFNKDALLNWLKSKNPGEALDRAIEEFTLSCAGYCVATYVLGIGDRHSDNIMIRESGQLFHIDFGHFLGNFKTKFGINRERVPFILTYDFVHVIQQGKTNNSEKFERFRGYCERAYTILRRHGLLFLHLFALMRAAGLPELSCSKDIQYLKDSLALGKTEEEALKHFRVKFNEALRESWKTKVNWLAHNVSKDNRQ
The assay is described as follows: Inhibition of human PI3Kdelta by ADP-Glo kinase assay.

For assay [17], the system named is Plasmodium falciparum. In words: Antimalarial activity against Plasmodium falciparum GB4 infected in human O+ erythrocytes incubated for 72 hrs by SYBR Green 1 dye based fluorescence assay. The format is functional, organism-based. The following applies: GB4, Erythrocyte.
Assay [18] deals with Plasmodium falciparum. The assay is described as follows: Antimalarial activity against chloroquine resistant Plasmodium falciparum FAB9 infected in human O+ erythrocytes incubated for 72 hrs by SYBR Green 1 dye based fluorescence assay. The format is functional, organism-based. The following applies: FAB9, Erythrocyte.
The target of assay [19] is Phosphatidylinositol 4,5-bisphosphate 3-kinase catalytic subunit gamma isoform (Homo sapiens, UniProt P48736). In words: Inhibition of human PI3Kgamma by ADP-Glo kinase assay.
In assay [20] the target is Phosphatidylinositol 4-kinase alpha (Homo sapiens, UniProt P42356). In words: Inhibition of human PI4K3alpha by ADP-Glo kinase assay.

Phosphatidylinositol 4,5-bisphosphate 3-kinase catalytic subunit alpha isoform, sequence (P42336 whole entry, canonical isoform): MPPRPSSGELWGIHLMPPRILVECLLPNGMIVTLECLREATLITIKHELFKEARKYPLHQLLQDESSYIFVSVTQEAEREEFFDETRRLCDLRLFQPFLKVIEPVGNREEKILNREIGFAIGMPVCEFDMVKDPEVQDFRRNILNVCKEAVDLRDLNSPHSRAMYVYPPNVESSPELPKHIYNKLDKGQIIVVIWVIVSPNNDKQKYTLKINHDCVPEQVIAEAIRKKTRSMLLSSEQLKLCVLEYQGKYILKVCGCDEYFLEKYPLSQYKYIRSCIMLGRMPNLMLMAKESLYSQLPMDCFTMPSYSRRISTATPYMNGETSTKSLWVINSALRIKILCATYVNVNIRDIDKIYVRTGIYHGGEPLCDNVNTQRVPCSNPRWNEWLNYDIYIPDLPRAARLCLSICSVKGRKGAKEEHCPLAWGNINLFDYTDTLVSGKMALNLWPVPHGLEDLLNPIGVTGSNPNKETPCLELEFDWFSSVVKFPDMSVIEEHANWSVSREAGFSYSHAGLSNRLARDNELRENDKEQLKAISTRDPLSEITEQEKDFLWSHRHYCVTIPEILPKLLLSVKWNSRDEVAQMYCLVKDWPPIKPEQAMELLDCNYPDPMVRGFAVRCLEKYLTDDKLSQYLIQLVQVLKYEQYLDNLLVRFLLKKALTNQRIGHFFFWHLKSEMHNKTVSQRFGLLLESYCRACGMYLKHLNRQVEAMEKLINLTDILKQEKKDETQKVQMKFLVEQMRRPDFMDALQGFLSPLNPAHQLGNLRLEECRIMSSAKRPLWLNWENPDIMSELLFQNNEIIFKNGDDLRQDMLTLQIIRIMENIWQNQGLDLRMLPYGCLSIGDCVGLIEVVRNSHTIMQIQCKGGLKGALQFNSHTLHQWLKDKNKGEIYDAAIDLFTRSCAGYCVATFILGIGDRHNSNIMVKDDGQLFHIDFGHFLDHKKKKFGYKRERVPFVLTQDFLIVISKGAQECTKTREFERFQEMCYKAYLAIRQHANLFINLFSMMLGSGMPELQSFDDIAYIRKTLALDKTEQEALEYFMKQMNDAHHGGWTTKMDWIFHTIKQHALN

Broadly, the EC50 is the concentration needed to bring the measured effect to its halfway point. What is called IC50 is the point on the concentration scale where inhibition reaches its midpoint. `O=S(=O)(Nc1cc(-c2cccnc2)cnc1Cl)c1ccccc1` came in with an EC50 in the assay on Plasmodium falciparum [1] of 4710 nM. Moreover, the IC50 in [2] was found to be 12.7 nM.
Taken in the same sequence, the figures for `C[C@H](CN)NC(=O)c1cncc(-c2cnc(Cl)c(NS(=O)(=O)c3ccccc3)c2)c1` were > 10000 nM and > 40 nM.
For `O=C(Nc1cccc(F)c1)c1cncc(-c2cnc(Cl)c(NS(=O)(=O)c3ccccc3)c2)c1` the same measures were > 10000 nM and > 156 nM.
For `O=S(=O)(Nc1cc(-c2ccncc2)cnc1Cl)c1ccccc1` the same measures were > 10000 nM and > 156 nM.
The compound `CCNC(=O)c1cncc(-c2cnc(Cl)c(NS(=O)(=O)c3ccccc3)c2)c1` registered an EC50 with Plasmodium falciparum [1] of 120 nM. The IC50 in assay [2] was 2.3 nM.
For `CNC(=O)c1cncc(-c2cnc(Cl)c(NS(=O)(=O)c3cccc(C(F)(F)F)c3)c2)c1`, the concentration for a half-maximal effect (EC50) in the assay on Plasmodium falciparum [1] amounted to 3500 nM. In [2], the IC50 was determined as 2.5 nM.
Taken in the same sequence, the figures for `CNC(=O)c1cc(-c2cnc(Cl)c(NS(=O)(=O)c3ccccc3)c2)ccn1` were > 10000 nM and > 156 nM.
Taken in the same sequence, the figures for `CNC(=O)c1cncc(-c2cnc(Cl)c(NS(=O)(=O)c3ccc(-c4ccccc4)cc3)c2)c1` were 5880 nM and 8.8 nM.
For `CNC(=O)c1cncc(-c2cnc(Cl)c(NS(=O)(=O)c3ccc(Cl)cc3Cl)c2)c1` the same measures were 120 nM and 1.2 nM.
As for `Cn1cc(-c2cnc(Cl)c(NS(=O)(=O)c3ccccc3)c2)cn1`, the concentration giving a half-maximal response (EC50) in the assay with Plasmodium falciparum [1] came to 1490 nM. For the same compound, in assay [2], the IC50 is 10 nM.
For `O=S(=O)(Nc1cc(-c2cnc3[nH]ncc3c2)cnc1Cl)c1ccccc1` the same measures were 4670 nM and 5.6 nM.
Taken in the same sequence, the figures for `CNC(=O)c1cc(-c2cnc(Cl)c(NS(=O)(=O)c3ccccc3)c2)c[nH]1` were > 10000 nM and > 156 nM.
For `O=C(Nc1ccccc1)c1cncc(-c2cnc(Cl)c(NS(=O)(=O)c3ccccc3)c2)c1` the same measures were 3680 nM and 145 nM.
For `O=C(Nc1ccc(F)cc1)c1cncc(-c2cnc(Cl)c(NS(=O)(=O)c3ccccc3)c2)c1`, in the assay on Plasmodium falciparum [1], the EC50 was > 10000 nM. Besides, the IC50 in assay [2] was > 156 nM.
For `CN(C)[C@H]1CCN(C(=O)c2cncc(-c3cnc(Cl)c(NS(=O)(=O)c4ccccc4)c3)c2)C1`, the EC50 in the assay on Plasmodium falciparum [1] is > 10000 nM. Further, the 50% inhibitory concentration (IC50) in assay [2] was > 156 nM.
For `CNC(=O)c1cncc(-c2cnc(Cl)c(NS(=O)(=O)c3ccccc3C(F)(F)F)c2)c1` the same measures were 87 nM and 0.5 nM.
`NCCNC(=O)c1cncc(-c2cnc(Cl)c(NS(=O)(=O)c3ccccc3)c2)c1` had a 50% effective concentration (EC50) in the assay on Plasmodium falciparum [1] of 130 nM. Also, in assay [2], the IC50 came to 13.8 nM.
With `CNC(=O)c1ccc(-c2cnc3cnc(C(=O)N(C)c4ccc(Cl)cc4)cn23)cc1`, the EC50 in the assay on Plasmodium falciparum [3] turned out to be 41.8 nM; with Plasmodium falciparum [4], 46.7 nM; in the assay on Plasmodium falciparum [6], 43.9 nM; with Plasmodium falciparum [8], 33.7 nM; in the assay with Plasmodium falciparum [9], 33.6 nM; in the assay with Plasmodium falciparum [12] it was 31.9 nM. Also, the EC50 in the assay with Plasmodium falciparum [14] came out at 54.9 nM; with Plasmodium falciparum [1], 41.1 nM; with Plasmodium falciparum [17], 39.2 nM; in the assay with Plasmodium falciparum [18], 44.8 nM. The half-inhibitory concentration (IC50) in assay [5] was > 10000 nM; in assay [7], 2730 nM; in assay [10], 9200 nM; in assay [11] it was > 10000 nM; in [13] it was > 10000 nM; in [15], > 10000 nM. Further, the half-maximal inhibitory concentration (IC50) amounted to 3100 nM in assay [16], 1.6 nM in assay [2], 5920 nM in [19] and 1420 nM in [20].
`CNC(=O)c1cncc(-c2cnc(Cl)c(NS(=O)(=O)c3ccc4c(c3)CCO4)c2)c1` came in with a half-maximal effective concentration (EC50) with Plasmodium falciparum [1] of 340 nM. Further, in assay [2], the IC50 was found to be 4.5 nM.
Taken in the same sequence, the figures for `CNC(=O)c1cccc(-c2cnc(Cl)c(NS(=O)(=O)c3ccccc3)c2)c1` were > 10000 nM and > 156 nM.
For `CC(=O)n1ccc2cc(-c3cnc(Cl)c(NS(=O)(=O)c4ccccc4)c3)cnc21` the same measures were 1050 nM and 8.1 nM.
With `CNC(=O)c1cncc(-c2cnc(Cl)c(NS(=O)(=O)c3cccc(-c4ccccc4)c3)c2)c1`, the EC50 with Plasmodium falciparum [1] turned out to be 7700 nM. In addition, the IC50 in [2] worked out at 7.5 nM.
Taken in the same sequence, the figures for `CNC(=O)c1cncc(-c2cnc(Cl)c(NS(=O)(=O)c3ccc(Cl)cc3)c2)c1` were 71 nM and 1.6 nM.
For `O=C(NCc1ccccc1)c1cncc(-c2cnc(Cl)c(NS(=O)(=O)c3ccccc3)c2)c1` the same measures were 3570 nM and 8.5 nM.
In the assay with Plasmodium falciparum [1], `CCCS(=O)(=O)Nc1cc(-c2cncc(C(=O)NC)c2)cnc1Cl` displayed an EC50 of 480 nM. Moreover, the IC50 in assay [2] was 13.2 nM.
For `CNC(=O)c1cncc(-c2cnc(Cl)c(NS(=O)(=O)c3ccc(F)cc3F)c2)c1` the same measures were 3400 nM and 0.4 nM.
Turning to `CNC(=O)c1cncc(-c2cnc(Cl)c(NS(=O)(=O)c3ccc(C)cc3)c2)c1`, the response in the assay on Plasmodium falciparum [1] was half-maximal at 39 nM (EC50). Further, the concentration for half-maximal inhibition (IC50) in [2] came to 1.2 nM.
Taken in the same sequence, the figures for `CNC(=O)c1cncc(-c2cnc(Cl)c(NS(=O)(=O)c3ccc(C)cc3C)c2)c1` were 39 nM and 2.2 nM.
For `CNC(=O)c1cncc(-c2cnc(Cl)c(NS(=O)(=O)c3ccc(C(F)(F)F)cc3)c2)c1` the same measures were 130 nM and > 156 nM.
`O=S(=O)(Nc1cc(-c2cnc3[nH]ccc3c2)cnc1Cl)c1ccccc1`: a half-maximal effect in the assay on Plasmodium falciparum [1] (EC50) was put at 3940 nM. Besides, the concentration for half-maximal inhibition (IC50) in assay [2] amounted to 7.7 nM.
For the compound `CCS(=O)(=O)Nc1cc(-c2cncc(C(=O)NC)c2)cnc1Cl`, a half-maximal effect in the assay with Plasmodium falciparum [1] (EC50) was put at 3500 nM. Besides, the IC50 in assay [2] worked out at 52.6 nM.
Taken in the same sequence, the figures for `CNC(=O)c1cncc(-c2cnc(Cl)c(NC(=O)c3ccccc3)c2)c1` were > 10000 nM and > 156 nM.
